Results on two compounds are retold here after US8354569B2, “Plant acyltransferases specific for long-chained, multiply unsaturated fatty acids” (University of Bristol, priority 2003, dated 2013).

The test system of one test is Thraustochytrium LPAAT. The experiment in a line: Acyl-CoA specificity of Thraustochytrium LPAAT expressed as GST fusion protein in E. coli. The class given is biochemical. As to conditions: 0.4 μg soluble protein fraction, 30 μM 1-oleoyl[U-14C]glycerol-3-phosphate, increasing thioester concentrations. The source says: The PCR product was transferred into the vector pDONOR221 by Gateway reaction (BP reaction; Invitrogen) following the manufacturer's instructions, and the sequence was verified by sequencing. In a next step, the ThLPAAT sequence was then transferred into the vector pDES15 by the LR reaction and employed for expression in E. coli BL21 cells. The ThLPAAT sequence was attached to the open reading frame of the glutathione-S transferase (GST) encoded in the plasmid, in accordance with the manufacturer's instructions. This gave rise to a fusion protein of GST and ThLPAAT.
Expressed protein was detected after expression under standard conditions in E. coli (FIG. 21A) and purified via a glutathione column.
The enzyme assays were determined using 0.4 μg of soluble protein fraction in the presence of 100 mM Tricine-NaOH (pH 8.2), 30 μM 1-oleoyl[U-^14C]glycerol-3-phosphate and increasing concentrations of the thioesters detailed.

A further test concerns Shewanella LPAAT. The test can be described thus: Functional expression of Shewanella LPAAT in E. coli, enzyme assays. The class given is biochemical, Shewanella hanedai. As to conditions: expressed at 10° C. in E. coli BL21, with or without His-tag; 30 μM thioester. An excerpt: To clone an LPAAT gene from the prokaryotic organism Shewanella, the genomic DNA from Shewanella hanedai was isolated, partially digested with Sau3a and ligated into the vector pUC18. This genomic library was screened for LPAAT genes by a PCR using different primer combinations. This method has made it possible to identify a 1486 by clone whose open reading frame codes for a 25.2 kDa LPAAT protein. The ShLPAAT sequence was introduced into the vector pQE70 (Qiagen) in accordance with the manufacturer's instructions. The resulting plasmids pQE70-Sh and pQE70-ShHis and the blank vector pQE70 were transformed into E. coli BL21 cells and expressed at 10° C. (FIG. 22A). Active protein was obtained at this temperature only (FIG. 22B). The membrane fractions were used for this purpose in the further experiments. […] The high incorporation rate with regard to PUFA acyl-CoA residues is required for the use for the production of PUFA.
The assays were carried out with extracts (1 μg) from E. coli comprising the blank vector (pQE70) or a Shewanella construct without (pQE-Sh) or with His-Tag sequence at the 3′ end (pQE-ShHis) in the presence of 30 μM 1-oleoyl[U-14C]glycerol-3-phosphate and 30 μM of the detailed thioesters.

Test [1] deals with GPAT. The test can be described thus: GPAT acyl-CoA substrate specificity, linseed microsomal membranes. The class given is biochemical. As to conditions: 0.2 mM acyl-CoA, 5 mM [14C] G3P, 5 minutes. On the procedure:
(§1) All the procedures were carried out at 4° C. The cotyledons of maturing sunflower seeds and linseed were harvested approximately 10 days after anthesis and suspended in 0.1 M sodium phosphate buffer (pH 7.2), comprising 0.33 M sucrose and 0.1% BSA (free from fatty acids). After comminution in a glass homogenizer, the homogenate was centrifuged for 30 minutes at 20 000×g. The supernatant was filtered through one layer of Miracloth and centrifuged for 90 minutes in an ultracentrifuge at 100 000×g. The pelleted microsomal membranes were washed with 0.1 M sodium phosphate buffer (pH 7.2) and resuspended in a small volume of buffer, using a glass homogenizer. The microsomal membrane preparations were either immediately processed or stored at −80° C.
(§2) The specificity of the GPAT was studied to verify whether the enzyme has a preference for certain acyl-CoAs, in particular to determine whether the GPAT from oil seed plants converts LCPUFA-CoAs. Microsomal membranes were incubated with 0.5 mM (Mortierella) or 0.2 mM (sunflower and linseed) of one of the following acyl-CoAs: myristoyl-CoA (14:0-CoA), palmitoyl-CoA (16:0-CoA), palmitoleoyl-CoA (16:1-CoA), stearoyl-CoA (18:0-CoA), oleoyl-CoA (18:1-CoA), linoleoyl-CoA (18:2-CoA), dihomo-gamma-linolenoyl-CoA (20:3-CoA) or arachidonyl-CoA (20:4-CoA) and 5 mM [^14C] G3P. Microsomal membranes (equivalent to 50 μg of protein in the case of sunflower and Mortierella and 150 μg of protein in the case of linseed) were added to the reaction mixture in order to start the reaction. After incubation for 5 minutes, the lipids were extracted by the method of Bligh & Dyer, and the radioactivity incorporated in complex lipids was determined.

Test [2] concerns LPAAT. The experiment in a line: LPAAT acyl-CoA substrate specificity, linseed microsomal membranes. The class given is biochemical. As to conditions: 20 nmol acyl-CoA, sn-1-oleoyl-lysophosphatidic acid, DTNB assay. How it is done:
as §1
(§3) The specificity of the LPAAT was studied in order to verify whether the enzyme has a preference for certain acyl-CoAs, in particular to determine whether the LPAAT from oil seed plants converts LCPUFA-CoAs. […] The assay comprised sn-1-oleoyl-lysophosphatidic acid (30 nmol), DTNB (50 nmol) and 20 nmol of one of the following acyl-CoAs: palmitoyl-CoA (16:0-CoA), stearoyl-CoA (18:0-CoA), oleoyl-CoA (18:1-CoA), linoleoyl-CoA (18:2-CoA), dihomo-gamma-linolenyl-CoA (20:3-CoA) or arachidonyl-CoA (20:4-CoA) in 1 ml of 0.1 M phosphate buffer, pH 7.2. […] Microsomal membranes (equivalent to 10 μg of protein in the case of Mortierella and 40 μg of protein in the case of sunflower and linseed) were added to the reaction mixture in order to start the reaction.

For test [3], the system named is LPCAT. The experiment in a line: LPCAT acyl-CoA substrate specificity, linseed microsomal membranes. The class given is biochemical. On the procedure: as §1
(§4) LPCAT activity was determined in a continuous spectraphotometric assay in which 5,5-dithiobis-2-nitrobenzoate (DTNB) was used, and the change in absorption at 409 nm and 25° C. was monitored. The assay comprised sn-1-palmitolysophosphatidylcholine (30 nmol) as acyl acceptor, DTNB (50 nmol) and 20 nmol of one of the following acyl-CoAs: myristoyl-CoA (14:0-CoA), palmitoyl-CoA (16:0-CoA), palmitoleoyl-CoA (16:1-CoA), stearoyl-CoA (18:0-CoA), oleoyl-CoA (18:1-CoA), linoleoyl-CoA (18:2-CoA), dihomo-gamma-linolenyl-CoA (20:3-CoA) or arachidonyl-CoA (20:4-CoA) in 1 ml of 0.1 M phosphate buffer, pH 7.2. The reaction was started by addition of microsomal membrane preparation. The amount of microsomal membrane preparation added was 5 μg (Mortierella and sunflower) or 30 μg (linseed).

Test [4] concerns GPAT. The experiment in a line: GPAT acyl-CoA substrate specificity, sunflower microsomal membranes. The class given is biochemical. As to conditions: 0.2 mM acyl-CoA, 5 mM [14C] G3P, 5 minutes. How it is done:
as §1, §2

Test [5] has as its system LPAAT. The test can be described thus: LPAAT acyl-CoA substrate specificity, sunflower microsomal membranes. As to conditions: 20 nmol acyl-CoA, sn-1-oleoyl-lysophosphatidic acid, DTNB assay. The class given is biochemical. How it is done:
as §1, §3

Test [6] relates to LPCAT. The experiment in a line: LPCAT acyl-CoA substrate specificity, sunflower microsomal membranes. It is filed as biochemical. As to conditions: 20 nmol acyl-CoA, sn-1-palmitolysophosphatidylcholine, DTNB assay. How it is done:
as §1, §4

The test system of test [7] is GPAT. The test can be described thus: GPAT acyl-CoA substrate specificity, Mortierella microsomal membranes. The class given is biochemical, Mortierella alpina. As to conditions: Mortierella GPAT; 0.5 mM acyl-CoA, 5 mM [14C] G3P, 5 minutes. On the procedure: (§5) Mortierella cultures were harvested after 5 days and placed on ice. All further procedures were carried out at 4° C. The mycelium was suspended in 0.1 M sodium phosphate buffer (pH 7.2), comprising 0.33 M sucrose, 0.1% BSA (free from fatty acids), 1000 units of catalase/ml and 1 mM Pefabloc. The following steps were carried out as described under “preparations of microsomal membranes from cotyledons of maturing seeds of sunflower and linseed”.
as §2

For test [8], the system named is LPAAT. The test can be described thus: LPAAT acyl-CoA substrate specificity, Mortierella microsomal membranes. As to conditions: Mortierella LPAAT; 20 nmol acyl-CoA, sn-1-oleoyl-lysophosphatidic acid, DTNB assay. The class given is biochemical, Mortierella alpina. On the procedure:
as §5, §3

Test [9] has as its system LPCAT. The experiment in a line: LPCAT acyl-CoA substrate specificity, Mortierella microsomal membranes. The class given is biochemical, Mortierella alpina. As to conditions: Mortierella LPCAT; 20 nmol acyl-CoA, sn-1-palmitolysophosphatidylcholine, DTNB assay. How it is done: as §5, §4

For `CC/C=C\C/C=C\C/C=C\C/C=C\C/C=C\C/C=C\CCC(=O)SCCNC(=O)CCNC(=O)[C@H](O)C(C)(C)COP(=O)(O)OP(=O)(O)OC[C@H]1O[C@@H](n2cnc3c(N)ncnc32)[C@H](O)[C@@H]1OP(=O)(O)O` [DHA-CoA], the “LPAAT activity of the purified GST fusion protein by acyl-CoA” value with Thraustochytrium LPAAT was “highest activity”. Further, in the test with Shewanella LPAAT, the “Incorporation activity of the membrane fraction” value was “high level of activity”.
Regarding `CCCCC/C=C\C/C=C\C/C=C\C/C=C\CCCC(=O)SCCNC(=O)CCNC(=O)[C@H](O)C(C)(C)COP(=O)(O)OP(=O)(O)OC[C@H]1O[C@@H](n2cnc3c(N)ncnc32)[C@H](O)[C@@H]1OP(=O)(O)O` [Arachidonoyl-CoA, arachidonyl-CoA], the “Percentage incorporation in comparison with the incorporation of oleic acid” value came out at 5% in the test with GPAT [1]; 19% in the test with LPAAT [2]; 0% in the test with LPCAT [3] (20 nmol acyl-CoA, sn-1-palmitolysophosphatidylcholine, DTNB assay); 23% in the test with GPAT [4]; 18% in the test on LPAAT [5]; 4% in the test with LPCAT [6]. Also, the “Percentage incorporation in comparison with the incorporation of oleic acid” value in the test on GPAT [7] came to 75%; with LPAAT [8], 65%; in the test with LPCAT [9], 90%. Moreover, the “LPCAT activity (in words)” value with LPCAT [3] is listed as “no LPCAT activity was detected”.
